Some test systems named below: LOX IMVI melanoma; HS 578T breast; NCI-H460 lung; EKVX NSCLC; OVCAR-5 ovarian; TK-10 renal; IGROV1 ovarian; MDA-MB-435; OVCAR-3 ovarian; CAKI-1 renal.
Holding throughout (experiment): DTP human tumour cell line panel, 48 h

Each structure is given as a SMILES string.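 96-well plates; 48 h exposure; 5 concentrations. Endpoints by linear interpolation between flanking doses. Not reached: highest tested concentration assigned. GI50 is the concentration that inhibits growth by half. TGI: total growth inhibition.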

As usually defined, the GI50 is the concentration at which growth is held to half of that of the control. In general, TGI refers to the concentration at which net growth stops.

In the case of `CCOc1ccccc1C(=O)N1CCN(c2cc(Cl)cc(Cl)c2)CC1`, the GI50 in the assay with LOX IMVI melanoma was 0.031 µM; with HS 578T breast it was 0.0327 µM; in the assay on NCI-H460 lung, 0.0362 µM; in the assay with EKVX NSCLC, 0.0587 µM; in the assay on OVCAR-5 ovarian, 0.0552 µM; with TK-10 renal, 9.16 µM. The GI50 was 0.0408 µM in the assay on IGROV1 ovarian, 0.0157 µM in the assay with MDA-MB-435, 0.0391 µM in the assay on OVCAR-3 ovarian and 0.0257 µM in the assay with CAKI-1 renal. The TGI worked out at 13.1 µM in the assay with LOX IMVI melanoma; 16.4 µM in the assay on HS 578T breast; 11.9 µM in the assay on NCI-H460 lung; 17.3 µM in the assay with EKVX NSCLC; 16.2 µM with OVCAR-5 ovarian; 24 µM with TK-10 renal. Further, the TGI in the assay with IGROV1 ovarian amounted to 13.9 µM; with MDA-MB-435, 0.0527 µM; in the assay with OVCAR-3 ovarian, 12.4 µM; in the assay on CAKI-1 renal, 12.5 µM.
